Source: US10562842B2, “Use of polyaminoisoprenyl derivatives in antibiotic or antiseptic treatment” (UNIVERSITE D'AIX-MARSEILLE, priority 2011, dated 2020)

What was measured:
[1] = test system: Enterobacter aerogenes MDR Ea289; assay: MIC of antibiotics ± test compound (MIC ratio), micro-broth dilution; assay type: cell-based; conditions: Set 2; for MIC ratio (*) on Ea289 Chl: chloramphenicol, compound at MIC/4
Experimental: The process consists of treating the MDR bacteria with the compounds of the invention in the presence of antibiotics.
(§1) Susceptibilities to antibiotics and compounds were determined in microplates by broth dilution method, as previously described. Minimal Inhibitory Concentrations (MICs) were determined with an inoculum of 10^6 CFU in 200 μL of MH broth containing two-fold serial dilutions of each drug. […] All MIC determinations were repeated at least three times in independent experiments.
The MICs of chloramphenicol±test compounds (MIC/4) were determined by the micro-broth dilution method (9). All MIC determinations were repeated at least three times in independent experiments. The MIC ratio corresponds to the ratio of the MIC of an antibiotic alone to the MIC of the same antibiotic in the presence of the tested compound (at MIC/4).
The compounds listed in Table 2 were tested for their ability to decrease the chloramphenicol MIC of Ea289, an Enterobacter aerogenes MDR strain (1). Each compound was first tested at MIC/4. […] All MIC determinations were repeated at least three times in independent experiments.
(§2) For reminder, the MIC ratio corresponds to the ratio of the MIC of the assessed antibiotic alone to the MIC of the same antibiotic in the presence of the tested compound (at MIC/4).

[2] = test system: Salmonella Thyphimurium MDR BN10055; assay: as above; assay type: cell-based, Salmonella enterica serovar Typhimurium; conditions: Set 2; for MIC ratio (*) on BN10055 Chl: chloramphenicol; for MIC ratio (*) on BN10055 Chl / MIC ratio (*) on BN10055 Dox / MIC ratio (*) on BN10055 Nal: compound at MIC/4; for MIC ratio (*) on BN10055 Dox: doxycycline; for MIC ratio (*) on BN10055 Nal: nalidixic acid
Experimental: The Enterobacter aerogenes Ea289 strain is a Kans derivative of the MDR clinical isolate Ea27, the acrB mutant, EaEP294, was constructed from Ea289. Multidrug-resistant Salmonella enterica serovar Typhimurium DT104 strains (BN10055) was isolated from cattle in France, the isogenic acrB derivative mutant, BN10055ΔacrB, was constructed from BN10055. Strains were maintained at −80° C. in 25% (v/v) glycerol for cryoprotection. Bacteria were routinely grown in Mueller-Hinton (MH) broth at 37° C.
as §1
[…] All MIC determinations were repeated at least three times in independent experiments. The MIC ratio corresponds to the ratio of the MIC of an antibiotic alone to the MIC of the same antibiotic in the presence of the tested compound (at MIC/4).
as §2

[3] = test system: Enterobacter aerogenes MDR Ea289; assay: as above; assay type: cell-based; conditions: compound at MIC/4, Set 2; for MIC ratio (*) on Ea289 Dox: doxycycline; for MIC ratio (*) on Ea289 Nal: nalidixic acid
[4] = test system: strain IV2571223 - Escherichia coli pig (sensible); assay: MIC of antibiotics in the presence and absence of test compound, veterinary strains; assay type: cell-based; set-up: MIC for strain IV2571223, Doxycycline in the presence of test compound: unit not given beside the values; conditions: compound at the Concentration (μM) (2-50)
Experimental: (§3) For each strain and each antibiotic, the MICs were determined in the presence and in the absence of one test compound.

[5] = test system: strain IV2571418 - Escherichia coli pig (resistant); assay: as above; assay type: cell-based; set-up: MIC for strain IV2571418, Doxycycline in the presence of test compound: unit not given beside the values; conditions: compound at the Concentration (μM) (4-50)
Experimental: as §3

[6] = test system: strain IV2570060 - Escherichia coli cattle (sensible); assay: as above; assay type: cell-based; conditions: compound at the Concentration (μM) (4-50)
Experimental: as §3

[7] = test system: strain IV2570533 - Escherichia coli cattle (resistant); assay: as above; assay type: cell-based; conditions: compound at the Concentration (μM) (0.896-12.6)
Experimental: as §3

Row | Structure (SMILES) | MIC ratio (*) on Ea289 Chl [1] | MIC ratio (*) on BN10055 Chl [2] | MIC ratio (*) on BN10055 Dox [2] | MIC ratio (*) on BN10055 Nal [2] | MIC ratio (*) on Ea289 Dox [3] | MIC ratio (*) on Ea289 Nal [3] | MICs for doxycycline and nalidixic acid, Ea289 ([1]; doxycycline and nalidixic acid) | MICs for doxycycline and nalidixic acid, BN100055 ([2]; doxycycline and nalidixic acid) | MIC for strain IV2571223, Doxycycline in the presence of test compound [4] | MIC for strain IV2571223, Tylosine in the presence of test compound [4] | MIC for strain IV2571418, Doxycycline in the presence of test compound [5] | MIC for strain IV2571418, Tylosine in the presence of test compound [5] | MIC for strain IV2570060, Doxycycline in the presence of test compound [6] | MIC for strain IV2570060, Tylosine in the presence of test compound [6] | MIC for strain IV2570533, Doxycycline in the presence of test compound [7] | MIC for strain IV2570533, Tylosine in the presence of test compound [7]
1 | CC(C)=CCC/C(C)=C/CC/C(C)=C/CNCCCNCCCN [Compound 20] | 8 | 8 | 32 | 64 | 32 | 8 | – | – | – | – | – | – | – | – | – | –
2 | CCN(CC)CCNCCCNC/C=C(\C)CCC=C(C)C [Compound 21] | 8-16 | 16 | 32 | 64 | 32 | 8 | – | – | – | – | – | – | – | – | – | –
3 | CC(C)=CCC/C(C)=C/CC/C(C)=C/CNCCCCN [Compound 17] | 8-16 | 8 | 16 | 64 | 64 | 16 | – | – | – | – | – | – | – | – | – | –
4 | CC(C)=CCC/C(C)=C/CC/C(C)=C/CNCCNCCNCCNCCNCCN [Compound 35, [2-(2-{2-[2-(2-Amino-ethylamino)-ethylamino]-ethylamino}-ethylamino)-ethyl]-(3,7,11-trimethyl-dodeca-2,6,10-trienyl)-amine] | – | – | – | – | – | – | > 8 | > 8 | 0.0625 | 32 | 2 | 8 | 0.0625 | 8 | 1 | 4
5 | CC(C)=CCC/C(C)=C/CNCCCN(C)CCCN [Compound 13, {3-[(3-Amino-propyl)-methyl-amino]-propyl}-((E)-3,7-dimethyl-octa-2,6-dienyl)-amine] | 16 | 8-16 | 16 | 32 | 16 | 8 | – | – | – | – | – | – | – | – | – | –
6 | CC(C)=CCC/C(C)=C/CC/C(C)=C/CNCCCN1CCN(CCCN)CC1 [Compound 15, {3-[4-(3-Amino-propyl)-piperazin-1-yl]-propyl}-((2E,6E)-3,7,11-trimethyl-dodeca-2,6,10-trienyl)-amine] | 8 | 8 | 32 | 64 | 128 | 32 | – | – | 0.0625 | 32 | 4 | 32 | 0.125 | 32 | 2 | 32
7 | CC(C)=CCC/C(C)=C/CC/C(C)=C/CNCCCNCCCCN [Compound 19] | 8-16 | 8-16 | 16 | 64 | 64 | 16 | – | – | – | – | – | – | – | – | – | –
8 | CC(C)=CCC/C(C)=C/CC/C(C)=C/CNCCCN1CCOCC1 [Compound 23] | 8 | 8 | 16 | 32 | 32 | 8 | – | – | – | – | – | – | – | – | – | –
9 | CC(C)=CCC/C(C)=C/CC/C(C)=C/CNCCCCCN [Compound 18] | 8-16 | 4-8 | 16 | 16 | 64 | 8 | – | – | – | – | – | – | – | – | – | –
10 | CC(C)=CCC/C(C)=C/CC/C(C)=C/CNCCCN1CCCC1 [Compound 22] | 8-16 | 16 | 32 | 128 | 32 | 16 | – | – | – | – | – | – | – | – | – | –
11 | CC(C)=CCC/C(C)=C/CC/C(C)=C/CNCCCN [Compound 16] | 8-16 | 16-32 | 32 | 128 | 64 | 16 | – | – | – | – | – | – | – | – | – | –
